Solubility in water data for one compound are collected here from patent US20080249088A1, “Topical Delivery of Antifungal Drugs” (priority 2007, published 2008).

A short description of the data set: solubility in water. The class given is physicochemical. Here is the method: In the preferred embodiment, a 100 ml. mixture would be created by mixing 1 gram of butenafine with 5 ml. of benzyl alcohol at room temperature. This would then be dissolved into 85 ml. of ethanol, then 10 ml. of water would be added.

In the case of `CN(Cc1ccc(C(C)(C)C)cc1)Cc1cccc2ccccc12` [Butenafine, butenafine], the solubility in water entry is on record as “limited solubility”.
